Experimental findings from patent US11230542B2, “Inhibitors of integrated stress response pathway” (Praxis Biotech LLC, priority 2017, dated 2022) are described below.

In assay [1] the test system is Balb/c mice injected with CT26 colon carcinoma cell line. Nature of the assay: Cachexia-induced muscle atrophy (CT26 tumor cells). Format: in vivo, mouse. The settings on record: 10 mg/kg daily oral gavage for 13 days. The method, then:
(§1) Wild type six-weeks-old male Balb/c mice obtained from the vivarium Fundacion Ciencia & Vida Chile (Santiago, Chile) were used. Mice were housed in independent plastic cages in a room maintained at 25° C. with a 12-h:12-h light:dark cycle.
1×10^6 CT26 colon carcinoma cell line (ATCC #CRL-2638, ATCC Manassas, Va.) were injected subcutaneously in the right lower flank of each animal for induction of cachexia-induced muscle atrophy as described (Nat Commun. 2012 Jun. 12; 3:896). Non-injected animals were used as controls. At day 6 post tumor-cell injection, animals were randomized into two groups and treated with 10 mg/kg of compound 3 formulated in 50% Polyethylene glycol (PEG-400) in distilled water, or with vehicle (50% PEG-400 in distilled water) by daily oral gavage for 13 days.
For in vivo measurements of protein synthesis, 30 min before the study ends, animals were injected intraperitoneally with puromycin (Sigma-Aldrich, P8833) at 0.04 μmol/g body weight in a volume of 200 μL of PBS. […]
Upon collection, muscles were immediately frozen in liquid nitrogen and then stored at −80° C. […] Protein concentration in supernatants was determined using BCA Protein Assay Kit (Pierce). […]
Puromycin (12D10) (Merck Millipore) and β-actin (Sigma-Aldrich) antibodies were used as primary antibodies. […] Quantification of protein bands was done by densitometry using ImageJ software.

Assay [2] deals with CHO cells. Kind of assay: Protein translation assay (puromycin incorporation in CHO cells, unstressed or Tg-stressed). The format is cell-based, Chinese hamster. The settings on record: Cricetulus griseus, media alone 100%. In short, it runs like this:
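CHO cells pretreated 2 h with 1 μM compound (unstressed), or 1 h with 100 nM or 1 μM then co-treated with 300 nM Tg. Pulse-labelled with 10 μg/ml puromycin for 30 min, then anti-puromycin western blot with densitometry. Unstressed values normalized to media alone (100%); stressed recovery scaled between media alone (100%) and Tg alone (0%).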

Assay [3] has as its system CT26 colon carcinoma cell line. Kind of assay: Tumor growth and density model. Format: in vivo, mouse. The following applies: 10 mg/kg daily oral gavage for 13 days from day 6 post tumor-cell injection. As for the experimental part: as §1
1×10^6 CT26 colon carcinoma cell line (ATCC #CRL-2638, ATCC Manassas, Va.) were injected subcutaneously in the right lower flank of each animal as described (Nat Commun. 2012 Jun. 12; 3:896). Non-injected animals were used as controls. At day 6 post tumor-cell injection, mean tumor volume was about 100 mm^3, animals were weighed and randomized into two groups and treated with 10 mg/kg of compound 3 formulated in 50% Polyethylene glycol (PEG-400) in distilled water, or with vehicle (50% PEG-400 in distilled water) by daily oral gavage for 13 days.
At the end of the study, tumors were measured with digital caliper and tumors volumes, expressed in mm^3, were calculated with the following formula: Tumor volume (mm^3)=(a×b^2)/2 where “a” is the largest perpendicular diameter and “b” is the smallest diameter. Animals were then sacrificed and tumors were extracted and weighed. The volumes and weight of the tumors of each animal are shown in FIGS. 12A and 12B respectively. Bars represent mean±SEM. Statistical analyses were performed using GraphPad Prism software and significant difference was assessed by t test (*<0.05).

Like-named read-outs stand apart in the source and are kept apart here.

On to `O=C(COc1ccc(Cl)cc1)N[C@H]1CC[C@H](NC[C@@H](O)COc2ccc(Cl)cc2)CC1` (single isomer, unassigned) [Compound 3, (+)-2-(4-chlorophenoxy)-N-(4-((3-(4-chlorophenoxy)-2-hydroxypropyl)amino)cyclohexyl)acetamide], for which, in assay [1], the “muscle weight (gastrocnemius, quadriceps, tibialis anterior)” value is on record as “prevented the CT26-induced muscle weight loss”. The “protein synthesis in muscle” value in assay [1] (quadriceps and tibialis anterior, versus vehicle) was “significantly increase protein synthesis”. Also, the activity at 0.1 µM in assay [2] (CHO cells stressed with 300 nM Tg, Tg alone 0%, read-out: % Recovery of protein expression (100 nM test compound)) was 69.4%. The activity at 1 µM was found to be 155% in assay [2] (CHO cells stressed with 300 nM Tg, Tg alone 0%, read-out: % Recovery of protein expression (1 μM test compound)) and 162% in assay [2] (unstressed CHO cells, 2 h, read-out: % Protein expression relative to untreated (1 μM test compound)). For the same compound, in assay [3], the “tumor density (weight/volume ratio)” value is “significantly reduce the tumor density”. For the same compound, the tumor volume entry in assay [3] is recorded as “does not reduce tumor volume”.
